Here are results for 5 compounds from BindingDB's records for doi:10.1016/j.bmcl.2012.11.020 (Glaxosmithkline, 2012).

In the assay the target is Serine/threonine-protein kinase B-raf (Homo sapiens, UniProt P15056). Description: Inhibition of B-Raf (unknown origin) expressed in mouse 3T3 cells co-expressing FLAG-tagged MEK1 assessed as inhibition of MEK1 phosphorylation after 2 hrs by ELISA. On the technique in general: An ELISA detects its analyte on a solid surface through an enzyme-linked reagent.
Sequence of Serine/threonine-protein kinase B-raf (P15056 whole entry): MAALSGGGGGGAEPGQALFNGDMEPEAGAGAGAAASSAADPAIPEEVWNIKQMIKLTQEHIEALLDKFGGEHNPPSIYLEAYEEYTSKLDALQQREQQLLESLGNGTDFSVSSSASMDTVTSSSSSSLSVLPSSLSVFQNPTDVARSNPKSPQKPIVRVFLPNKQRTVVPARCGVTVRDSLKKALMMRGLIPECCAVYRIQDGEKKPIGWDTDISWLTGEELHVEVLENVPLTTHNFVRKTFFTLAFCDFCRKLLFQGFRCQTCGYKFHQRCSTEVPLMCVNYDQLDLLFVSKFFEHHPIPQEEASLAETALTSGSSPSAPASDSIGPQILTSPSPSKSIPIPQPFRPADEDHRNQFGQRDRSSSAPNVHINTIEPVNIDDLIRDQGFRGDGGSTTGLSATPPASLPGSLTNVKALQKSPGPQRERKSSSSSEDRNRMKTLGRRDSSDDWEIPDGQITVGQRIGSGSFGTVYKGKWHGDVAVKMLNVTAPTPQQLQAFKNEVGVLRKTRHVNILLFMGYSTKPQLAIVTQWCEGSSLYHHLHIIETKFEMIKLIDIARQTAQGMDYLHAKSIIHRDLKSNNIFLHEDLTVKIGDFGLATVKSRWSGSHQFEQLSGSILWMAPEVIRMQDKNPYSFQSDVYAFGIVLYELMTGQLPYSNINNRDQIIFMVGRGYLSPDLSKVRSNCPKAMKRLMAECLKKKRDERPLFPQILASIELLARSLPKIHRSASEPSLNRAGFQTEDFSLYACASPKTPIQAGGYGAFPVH
In general, IC50 refers to the point on the concentration scale where inhibition reaches its midpoint. For `Nc1ncc(-c2cccnc2)c2scc(-c3cccc(NC(=O)Nc4ccc(OCc5ccccc5)cc4)c3)c12`, the IC50 is greater than 10 µM.
With `COc1cccc(NC(=O)Nc2cccc(-c3csc4c(-c5cccnc5)cnc(N)c34)c2)c1` the figure was 0.7 µM.
`Nc1ncc(-c2cccnc2)c2scc(-c3cccc(NC(=O)NC4CCCCC4)c3)c12`: the IC50 came out at 4.1 µM.
`Cc1noc(C)c1NC(=O)Nc1cccc(-c2csc3c(-c4cccnc4)cnc(N)c23)c1`: the IC50 was greater than 10 µM.
For the compound `Nc1ncc(-c2cccnc2)c2scc(-c3cccc(NC(=O)C4CCCCC4)c3)c12`, the IC50 is greater than 10 µM.
